Reference: ChEMBL document CHEMBL3507680, “University of Dundee, Gates Library screen for HepG2 cell viability”

Assay: Human HepG2 cell viability assay in 384 well format
Type: toxicity, cell-based
Set-up: dose 125 nL, time 70.5 hour; cytotoxicity at 70.5 h: concentration not given beside the values
Conditions: HepG2 cells, read-out: Inhibition

Structure (SMILES)	cytotoxicity at 70.5 h
CCC(C)Oc1ccc(CNCCNS(C)(=O)=O)cc1Cl (centres undefined)	-0.417%
Cc1cc(Br)ccc1C(=O)NCCN1CCCCCC1	-10.6%
c1ccc(CCCn2ccnc2-c2cn(C3CCNCC3)nn2)nc1	22.4%
COc1ccccc1CN(CC1CCCO1)C(=O)c1scnc1C (centres undefined)	-12.6%
CC(N1CCN(C(=O)NCc2cccc(C#N)c2)CC1)C(F)(F)F (centres undefined)	-0.642%
CCC(NC(=O)c1cccc2[nH]ccc12)C(=O)N1CCOCC1 (centres undefined)	-6.49%
Cc1nc(CN2C(=O)CC[C@@H]3[C@H]2CCN3C(=O)c2ccccn2)cs1	-4.48%
CCC1(C(=O)O)CCCN(C(=O)c2ccc(O)c(Cl)c2)C1 (centres undefined)	-4.39%
O=S(=O)(Cc1ccccc1)c1nnc(N2CCCC2)s1	-2.76%
COc1ccccc1CCNC(=O)CN1CCCC1c1noc(C)n1 (centres undefined)	-3.07%
c1c[nH]c2nc(C3CCCNC3)nc-2c1 (centres undefined)	-13.7%
CS(=O)(=O)NC[C@H]1OC[C@@H]2CCN(CCc3ccccc3)C[C@@H]21	17.3%
CC1CN(Cc2nnsc2Cl)CCN1c1nccs1 (centres undefined)	-19.1%
NC(=O)Cn1ccnc1C1CCCN(Cc2cccc(Cl)c2F)C1 (centres undefined)	-11.7%
COc1ccccc1CN1C(=O)O[C@@H]2CN(S(=O)(=O)N(C)C)C[C@@H]21	-0.664%
CC(C)[C@H]1CN(Cc2c[nH]cn2)C[C@@H]1NC(=O)CC1CCC1	-6.54%
CC(C)Oc1cccc(F)c1C(C(=O)O)N1CCCN(C)CC1 (centres undefined)	26.8%
Cc1cnn(C2CCCN(C(=O)Cc3cn4ccccc4n3)C2)c1 (centres undefined)	-12.4%
O=C(CO[C@@H]1CC[C@H]2[C@H]1OCCN2c1ncccn1)N1CCCC1	-0.322%
Cc1nn(C)c(C)c1CC(C)NC(=O)NCc1ccn(C(C)C)n1 (centres undefined)	-5.76%
COc1cc(Cl)c(NC(=O)NCCn2cccc2)cc1OC	-4.58%
Cc1ccc(CN2CCOCC3(C2)CN(c2ccc(C)s2)C(=O)CO3)o1 (centres undefined)	0.222%
CC(C)c1nnc2n1CCN(Cc1nc(-c3ccoc3)no1)C2	16.7%

Structure (SMILES)	cytotoxicity at 70.5 h
CC(C)(C)C(=O)NCC(=O)NCCc1nc(C(F)(F)F)cs1	-9.84%
NC(=O)C1CCCN1Cc1cccc(NC(=O)c2cc(Cl)cc(Cl)c2)c1 (centres undefined)	-15.9%
CN(Cc1ccc(Cl)c(F)c1)C(=O)c1ccncc1F	-6.79%
c1ccc(CN2CCO[C@H]3[C@H](OCCN4CCCC4)CC[C@@H]32)nc1	-7.8%
O=C1CCC2(CCNCC2)CN1CCCOc1cccnc1	-1.48%
CC(SCc1cc(Br)cc2cccnc12)C(N)=O (centres undefined)	-16%
Cc1noc([C@@H]2C[C@H](NS(=O)(=O)Cc3ccccc3)CN2C)n1	-3.9%
c1ccc(CCNCC2Cn3nncc3CO2)cc1 (centres undefined)	-0.333%
CCOc1ccc(CN2CC[C@@](C)(O)[C@@H](Cc3ccccc3)C2)cn1	-1.83%
O=C(NCCc1nccs1)N1CCC(n2cccc2)CC1	-9.14%
COCCN1CCCC(c2cncc(Oc3ccccc3OC)n2)C1 (centres undefined)	-3.1%
O=C(c1cc(Cl)c2c(c1)OCO2)N1CCN(c2ccccn2)CC1	-2.19%
Cc1cc(C(=O)NCCN2CCCCC2)nn1C(C)(C)C	-18%
O=C(CN1CCN(C(=O)c2cccc(-c3ccoc3)c2)CC1)C1CC1	-5.66%
Cc1csc(N2CCCN(Cc3noc(C)n3)CC2)n1	-1.5%
c1ccc2sc(N3CCCN(c4ncnc5c4CCNC5)CC3)nc2c1	-7.26%
Cc1cc2c(=O)n3c(nc2s1)CCN(Cc1cnc(C)n1C)CC3	-4.27%
COC(=O)CC(NC(=O)c1ccccc1OC)c1cccs1 (centres undefined)	5.97%
Cc1nc(CNC(=O)Nc2ccc3c(c2)CCCC(=O)N3)sc1C	-0.115%
Cc1cc(F)cc(NC(=O)N(C)CC(C)(CO)CO)c1	-1.87%
CC(=O)N1CCC2(CC1)COCCN2Cc1ccc(F)cc1	-0.157%
O=C(c1ccnnc1)N1CCN(Cc2ccncc2)c2ncccc2C1	-6.87%
Cc1ccc(F)c(S(=O)(=O)NCc2cccc(C(=O)N3CCCC3)c2)c1	16.3%

Structure (SMILES)	cytotoxicity at 70.5 h
O=C(c1cc[nH]n1)N1CCc2ncnc(NCc3ccccn3)c2CC1	-8.31%
COCC(=O)N1CCC2(CCC2NC(=O)c2ccn(C)c2)CC1 (centres undefined)	-9.35%
CCSc1ncc(-c2cc(C3CC3)nc(N)c2C#N)cn1	-4.52%
Cc1nc([C@@H]2C[C@@H]3CCN(C(=O)Cc4cccs4)C[C@H]3O2)no1	-11.4%
Cc1[nH]nc2ncc(C(=O)N3CCN(CC(C)C)CC3)cc12	11.9%
Cn1cc(N2CCC3(CCCN(Cc4ccc(F)cc4)C3)C2=O)cn1 (centres undefined)	-12.2%
CCN(Cc1cccc2c1OCO2)C(=O)Nc1cn[nH]c1	-5.23%
Cc1nc(C2CCCN2CC(=O)NCCOc2ccccc2)no1 (centres undefined)	0.566%
CNC(=O)CN1CCCC(Cc2ccccc2OC)C1 (centres undefined)	5.69%
Cc1ccc2cc(CNCCCO)c(=O)[nH]c2c1	-2.37%
Cn1ccnc1CN1C[C@@H](CN2CCC(CO)CC2)[C@@H](CO)C1	-7.99%
NC(=O)C1CCCN(C(=O)c2cccc(OCc3cscn3)c2)C1 (centres undefined)	-9.59%
O=S(=O)(Cc1ccccc1)NCc1ccco1	-5.52%
CCN1CCCC(c2c(-c3ccccc3)ncn2CCCO)C1 (centres undefined)	-8.57%
Cn1cc(C(=O)N2CCCC2c2noc(C3CC3)n2)c2ccccc21 (centres undefined)	-3.41%
Cc1nn(C)c(N2CCOCC2)c1CNCC1CCN(C2CC2)C1 (centres undefined)	15.8%
COCCOc1ccccc1CNCC1COC2(CCCC2)O1 (centres undefined)	0.252%
O=C(c1ccccc1)C1CCN(c2cncc(-n3cccn3)n2)CC1	1.36%
O=C(Nc1ccc(-c2csnn2)cc1)NC(CCO)C1CC1 (centres undefined)	18%
COCCn1ccc2cc(C(=O)NC3CCOC(C)(C)C3)ccc21 (centres undefined)	-2.78%
Cc1cc(C)n(CC2CCCCN2CCc2ccncc2)n1 (centres undefined)	4.66%
Cc1cc(C)cc(CN2CCC3(CC2)CC(Nc2ncccn2)CO3)c1 (centres undefined)	-68.4%
O=C(O)C(c1ccc2[nH]ccc2c1)N1CCN(c2cnccn2)CC1 (centres undefined)	-3.87%

Structure (SMILES)	cytotoxicity at 70.5 h
CSCCNC(=O)c1cc(Br)cn1C(C)C	-1.74%
CCc1nc(NCCCn2cccn2)c2c(n1)c(C)nn2CC	14.8%
Cc1ccc(C)c(C(C(=O)O)N2CCCN(Cc3ccccn3)CC2)c1 (centres undefined)	-8.23%
CC(C)Cc1nnc(SCC(=O)O)n1-c1ccc(F)cc1F	5.45%
CN(Cc1cn2c(n1)CN(Cc1ccc(F)cc1)CC2)Cc1ccco1	-8.36%
CNC(=O)[C@H]1C[C@@H]2CN(C(=O)c3ccncc3)C[C@@H]2N1S(C)(=O)=O	22.4%
CCC(C(=O)NCC1=CCCN(C)C1)c1ccccc1 (centres undefined)	-13.4%
Cc1cccc(N2N=C(C(=O)NC(C)CCc3ccco3)CCC2=O)c1 (centres undefined)	28.5%
CC1CCCCN1c1nc2c(c(=O)[nH]1)CCN(Cc1ccccc1F)C2 (centres undefined)	-5.68%
Cn1nnc2c1C(COCC1CC1)CN(C(=O)[C@H]1CCCO1)C2 (some centres undefined)	0%
CCN(CC)C(=O)Cn1ccc2cc(NC(=O)C3CCCO3)ccc21 (centres undefined)	7.81%
CC1CN(C(=O)c2cccc(OCc3cscn3)c2)CCO1 (centres undefined)	-1.66%
COCCNC(=O)C(C)n1cc(Br)cn1 (centres undefined)	-15.1%
O=C(C1CSc2ccccc2O1)N1CCN(CCO)CC1 (centres undefined)	-14.3%
Cc1nc(C(=O)N2CCOCC2)cc(N2CCC(C(N)=O)CC2)n1	-0.347%
CCc1ccccc1-n1nnc(C(=O)O)c1-c1ccccn1	-8.12%
N#Cc1ccnc(N2CCC(NCCN3CCCC3)CC2)c1	-6.96%
Cc1ccc(C(=O)NC(CN2CCCC2=O)c2ccccc2)c(=O)[nH]1 (centres undefined)	17.4%
CCNc1cc2c(nn1)CCN(C(=O)C1CCc3ccccc31)C2 (centres undefined)	-0.738%
Cc1ccc(CN2CCC3(CC2)OC(C(=O)N(C)C)c2ccccc23)o1 (centres undefined)	-13.3%
Cc1nonc1NC(=O)CCn1cc(Br)ccc1=O	6.64%
Cc1cnccc1-c1cc(NCCO)nc2[nH]ccc12	14.2%
CN(C)C(=O)c1nc2c(s1)CCCN2Cc1ccccc1	-7.89%

Structure (SMILES)	cytotoxicity at 70.5 h
CCc1noc(CN2CCCN(C(N)=O)CC2)n1	-12%
COCc1ncn(Cc2nc(-c3ccc(OC)cc3F)oc2C)n1	51.2%
O=C(CN1CCCC1Cn1cncn1)Nc1nccs1 (centres undefined)	-7%
COC(=O)NC1(C(=O)NCc2ccc(-c3ccn[nH]3)cc2)CCCC1	-0.909%
COCCN1CCN(Cc2cnc(C3(C)CCCCO3)nc2)CC1 (centres undefined)	0.727%
Cn1cc(N2CC3(COCCN(Cc4nccs4)C3)OCC2=O)cn1 (centres undefined)	-9.93%
CCC(CO)N(Cc1ccccn1)C(=O)c1ccc(F)c(F)c1 (centres undefined)	-6.83%
COc1ccc(Oc2ncccc2NC(=O)N2CCOCC2)cc1	-6.42%
CCNC(=O)c1cnc(Cc2ccc(F)cc2)s1	-6.25%
CCS(=O)(=O)N1CCc2c(COCc3ccncc3)cncc2C1	18.9%
CCn1nccc1CNC(=O)C1CC1	-10.1%
Cc1noc(COCC(=O)N2CCCCC2c2nccs2)n1 (centres undefined)	-8.06%
O=C(C1CCOc2ccccc21)N1CCOc2cccc(F)c21 (centres undefined)	4.13%
Cn1ccnc1CN1CCC(Cc2ccccn2)CC1	17.2%
CC(=O)N1CCC2(CCCN(C(=O)c3ccc(Cl)c(C(F)(F)F)c3)C2)C1 (centres undefined)	-14.2%
Cc1c(C(=O)N2CCN(c3ccccn3)CC2)n(C)c2ccc(Cl)cc12	-13.6%
CC(C)c1nc2oc(C(=O)N3CCOCC3)c(N)c2c2c1CCCC2	-16.6%
CCC[C@]12CN3C[C@](C)(CN(C1)C3c1[nH]c(=O)[nH]c(=O)c1C)C2=O (some centres undefined)	-9.33%
O=C1CCCN1C1CCCN(CCn2cc(Cl)cn2)C1 (centres undefined)	-26.9%
Fc1ccc(-c2nc(CN3CCn4c(nnc4C4CC4)C3)co2)cc1	-8.13%
Cc1cnn(CCCNC(=O)NCCC(=O)Nc2ccccc2)c1	-11.8%
COc1ccc(-c2c[nH]c(C3CC(=O)N(CC(C)C)C3)n2)cc1 (centres undefined)	-7.11%
